According to patent publication US10723733B2, “Hepatitis B antiviral agents” (Enanta Pharmaceuticals, Inc., priority 2017, dated 2020):

These compounds were tested on HBV (assay: HepAD38 antiviral assay: reduction of viral product accumulation (virion DNA by qPCR, HBsAg/HBeAg by ELISA)). Conditions: Hepatitis B virus, 120 h; HepAD38 cells; 50% reduction of viral product accumulation vs no drug controls; five days after compound addition; class symbols.
Format: cell-based
Method: Methods: HepAD38 cells are maintained as previously reported (Ladner et al, Antimicrob. Agents Chemother. 1997, […], 1715). Briefly, cells are passaged upon attaining confluency in DMEM/F12 media in the presence of 10% FBS, Penn/Strep, 250 μg/mL G418, and 1 μg/ml tetracycline. Novel compounds are screened by first washing cells three times with PBS to remove tetracycline, and plating in 96 well plates at 35,000 cells/well. Compounds dissolved in DMSO are then diluted 1:200 into wells containing cells. Five days after compound addition, material is harvested for analysis. For an extended 8 day analysis, cells are plated and treated as described above, but media and compound are refreshed on d2 and d5 post initial treatment.
On harvest day, virion DNA is obtained by lysing with Sidestep Lysis and Stabilization Buffer and then quantified via quantitative real time PCR. Commercially available ELISA kits are used to quantitate the viral proteins HBsAg (Alpco) or HbeAg (US Biological) by following the manufacturer's recommended protocol after diluting samples to match the linear range of their respective assays. Irrespective of readout, compound concentrations that reduce viral product accumulation in the cell lysates or supernatants by 50% relative to no drug controls (EC50) are reported; EC50 ranges are as follows: A<0.1 μM; B 0.1-1 μM; C>1 μM.
In the case of O=C[C@]1(CC2=C(c3ccn(C(F)F)n3)[C@H](c3ccc(F)cc3Cl)N=C(c3nccs3)N2)COC(=O)N1 [Example 95], the EC50 is reported as < 0.1 µM.
O=C1N[C@@](/C=N/Oc2ccccc2)(CC2=C(c3ccn(C(F)F)n3)[C@H](c3ccc(F)cc3Cl)N=C(c3nccs3)N2)CO1 [Example 102] was tested, and the EC50 was 0.1 to 1 µM.
For OC1CCCCC1CC1=C(c2cnn(C(F)F)c2)[C@H](c2ccc(F)cc2Cl)N=C(c2nccs2)N1 (stereo partly shown) [Example 46], the EC50 was 0.1 to 1 µM.
[N-]=[N+]=N[C@]1(CO)CC2=C(c3cnn(C(F)F)c3)[C@H](c3ccc(F)cc3Cl)N=C(c3nccs3)N2C1 [Example 50] was tested, and the EC50 was < 0.1 µM.
With O=S(=O)(N[C@H]1CC2=C(c3cnn(CC(F)(F)F)c3)[C@H](c3ccc(F)cc3Cl)N=C(c3nccs3)N2C1)C1CC1 [Example 7] the EC50 was < 0.1 µM.
For CCCCS(=O)(=O)N[C@H]1CC2=C(c3cnn(C(F)F)c3)[C@H](c3ccc(F)cc3Cl)N=C(c3nccs3)N2C1 [Example 23], the EC50 was < 0.1 µM.
CN(C)C(=O)N[C@H]1CC2=C(c3cnn(C(F)F)c3)[C@H](c3ccc(F)cc3Cl)N=C(c3nccs3)N2C1 [Example 18] was tested, and the EC50 was < 0.1 µM.
For CS(=O)(=O)OC[C@@]1(F)CC2=C(c3cnn(C(F)F)c3)[C@H](c3ccc(F)cc3Cl)N=C(c3nccs3)N2C1 [Example 35], the EC50 was 0.1 to 1 µM.
With OCC(O)(CO)CC1=C(c2ccn(C(F)F)n2)[C@H](c2ccc(F)cc2Cl)N=C(c2nccs2)N1 [Example 111] the EC50 was < 0.1 µM.
For COC(=O)N[C@H]1CC2=C(c3cnn(C(F)F)c3)[C@H](c3ccc(F)cc3Cl)N=C(c3nccs3)N2C1 [Example 14], the EC50 was < 0.1 µM.
Work on OCC(F)(CO)CC1=C(c2cnn(C(F)F)c2)[C@H](c2ccc(F)cc2Cl)N=C(c2nccs2)N1 [Example 137] yielded an EC50 of 0.1 to 1 µM.
C[C@H]1OC[C@@](F)(CC2=C(c3cnn(C(F)F)c3)[C@H](c3ccc(F)cc3Cl)N=C(c3nccs3)N2)CO1 [Example 140] was tested, and the EC50 was 0.1 to 1 µM.
CCS(=O)(=O)N[C@H]1CC2=C(c3cnn(C(F)F)c3)[C@H](c3ccc(F)cc3Cl)N=C(c3nccs3)N2C1 [Example 21] was tested, and the EC50 was < 0.1 µM.

Same assay, conditions: Hepatitis B virus, 120 h; HepAD38 cells; 50% reduction of viral product accumulation vs no drug controls; five days after compound addition; given as numeric bound
With CCOC(=O)NC[C@@H]1CCC(=O)N1CC1=C(c2ccn(C(F)F)n2)[C@H](c2ccc(F)cc2Cl)N=C(c2nccs2)N1 [Example 135] the EC50 was > 0.4 µM.
CS(=O)(=O)N[C@]1(CO)CC2=C(c3ccn(C(F)F)n3)[C@H](c3ccc(F)cc3Cl)N=C(c3nccs3)N2C1 [Example 69] was tested, and the EC50 was > 0.4 µM.
In the case of COC(=O)/C=C/[C@]1(CC2=C(c3ccn(C(F)F)n3)[C@H](c3ccc(F)cc3Cl)N=C(c3nccs3)N2)COC(=O)N1 [Example 105], the EC50 is reported as > 0.4 µM.
For COC(=O)[C@@]1(CC2=C(c3ccn(C(F)F)n3)[C@H](c3ccc(F)cc3Cl)N=C(c3nccs3)N2)COC(=O)N1 [Example 89], the EC50 was > 0.4 µM.
For CCOC(=O)NC[C@H]1CN(CC2=C(c3ccn(C(F)F)n3)[C@H](c3ccc(F)cc3Cl)N=C(c3nccs3)N2)C(=O)O1 [Example 126], the EC50 was > 0.4 µM.
In the case of CS(=O)(=O)NC[C@]1(O)CC2=C(c3ccn(C(F)F)n3)[C@H](c3ccc(F)cc3Cl)N=C(c3nccs3)N2C1 [Example 118], the EC50 is reported as > 0.4 µM.
COC(=O)NC[C@@H]1CN(CC2=C(c3ccn(C(F)F)n3)[C@H](c3ccc(F)cc3Cl)N=C(c3nccs3)N2)C(=O)O1 [Example 128] was tested, and the EC50 was > 0.4 µM.
For [N-]=[N+]=NC[C@]1(N=[N+]=[N-])CC2=C(c3cnn(C(F)F)c3)[C@H](c3ccc(F)cc3Cl)N=C(c3nccs3)N2C1 [Example 52], the EC50 was > 0.4 µM.
For COC(=O)N[C@]1(C(C)O)CC2=C(c3ccn(C(F)F)n3)[C@H](c3ccc(F)cc3Cl)N=C(c3nccs3)N2C1 (stereo partly shown) [Example 119], the EC50 was > 0.4 µM.
For O=S(=O)(N[C@H]1CC2=C(c3cc[nH]n3)[C@H](c3ccc(F)cc3Cl)N=C(c3nccs3)N2C1)C1CC1 [Example 4], the EC50 was > 0.1 µM.
With COC(=O)[C@]1(O)CC2=C(c3ccn(C(F)F)n3)[C@H](c3ccc(F)cc3Cl)N=C(c3nccs3)N2C1 [Example 121] the EC50 was > 0.4 µM.
With Fc1ccc([C@@H]2N=C(c3nccs3)NC(C[C@]3(F)CO[C@H](c4ccccc4)OC3)=C2c2cnn(C(F)F)c2)c(Cl)c1 [Example 144] the EC50 was > 0.4 µM.
For COC(=O)N[C@]1(C(=O)O)CC2=C(c3ccn(C(F)F)n3)[C@H](c3ccc(F)cc3Cl)N=C(c3nccs3)N2C1 [Example 73], the EC50 was > 0.4 µM.
With CC(C)(C)OC(=O)NC[C@H]1CN(CC2=C(c3ccn(C(F)F)n3)[C@H](c3ccc(F)cc3Cl)N=C(c3nccs3)N2)C(=O)O1 [Example 124] the EC50 was > 0.4 µM.
In the case of COC[C@]1(CC2=C(c3ccn(C(F)F)n3)[C@H](c3ccc(F)cc3Cl)N=C(c3nccs3)N2)COC(=O)N1 [Example 99], the EC50 is reported as > 0.4 µM.
For [N-]=[N+]=N[C@@]1(CO)CC2=C(c3cnn(C(F)F)c3)[C@H](c3ccc(F)cc3Cl)N=C(c3nccs3)N2C1 [Example 48], the EC50 was > 0.4 µM.
For O=C1N[C@](CC2=C(c3ccn(C(F)F)n3)[C@H](c3ccc(F)cc3Cl)N=C(c3nccs3)N2)(C(=O)O)CO1 [Example 103], the EC50 was > 0.4 µM.
COC(=O)NC[C@@H]1CCC(=O)N1CC1=C(c2ccn(C(F)F)n2)[C@H](c2ccc(F)cc2Cl)N=C(c2nccs2)N1 [Example 133] was tested, and the EC50 was > 0.4 µM.
In the case of O=C(N[C@H]1CC2=C(c3cnn(C(F)F)c3)[C@H](c3ccc(F)cc3Cl)N=C(c3nccs3)N2C1)NS(=O)(=O)c1ccccc1 [Example 17], the EC50 is reported as > 0.1 µM.
With OCC(CO)CC1=C(c2cnn(C(F)F)c2)[C@H](c2ccc(F)cc2Cl)N=C(c2nccs2)N1 [Example 26] the EC50 was > 0.1 µM.
With COC[C@@]1(NC(=O)OC)CC2=C(c3ccn(C(F)F)n3)[C@H](c3ccc(F)cc3Cl)N=C(c3nccs3)N2C1 [Example 85] the EC50 was > 0.4 µM.
For C=CCOCC(F)(COC)CC1=C(c2cnn(C(F)F)c2)[C@H](c2ccc(F)cc2Cl)N=C(c2nccs2)N1 (stereo partly shown) [Example 136], the EC50 was > 0.4 µM.
For CS(=O)(=O)NCC1CC2=C(c3cnn(C(F)F)c3)[C@H](c3ccc(F)cc3Cl)N=C(c3nccs3)N2C1 (stereo partly shown) [Example 30], the EC50 was > 0.1 µM.
In the case of COC(=O)[C@](N)(CO)CC1=C(c2ccn(C(F)F)n2)[C@H](c2ccc(F)cc2Cl)N=C(c2nccs2)N1 [Example 62], the EC50 is reported as > 0.4 µM.
COC(=O)[C@]1(NC(=O)OC(C)(C)C)CC2=C(c3ccn(C(F)F)n3)[C@H](c3ccc(F)cc3Cl)N=C(c3nccs3)N2C1 [Example 65] was tested, and the EC50 was > 0.4 µM.
For CS(=O)(=O)NC(=O)N[C@H]1CC2=C(c3cnn(C(F)F)c3)[C@H](c3ccc(F)cc3Cl)N=C(c3nccs3)N2C1 [Example 15], the EC50 was > 0.1 µM.
For COC(=O)CNC(=O)[C@@]1(NC(=O)OC)CC2=C(c3ccn(C(F)F)n3)[C@H](c3ccc(F)cc3Cl)N=C(c3nccs3)N2C1 [Example 74], the EC50 was > 0.4 µM.
With [N-]=[N+]=NCC1(F)CC2=C(c3cnn(C(F)F)c3)[C@H](c3ccc(F)cc3Cl)N=C(c3nccs3)N2C1 (stereo partly shown) [Example 41] the EC50 was > 0.4 µM.
CO/N=C/[C@]1(CC2=C(c3ccn(C(F)F)n3)[C@H](c3ccc(F)cc3Cl)N=C(c3nccs3)N2)COC(=O)N1 [Example 101] was tested, and the EC50 was > 0.4 µM.
With COC(=O)[C@]1(N)CC2=C(c3ccn(C(F)F)n3)[C@H](c3ccc(F)cc3Cl)N=C(c3nccs3)N2C1 [Example 75] the EC50 was > 0.4 µM.
For CC(=O)NCC1CC2=C(c3cnn(C(F)F)c3)[C@H](c3ccc(F)cc3Cl)N=C(c3nccs3)N2C1 (stereo partly shown) [Example 29], the EC50 was > 0.1 µM.
In the case of CNC(=O)OC[C@]1(CC2=C(c3ccn(C(F)F)n3)[C@H](c3ccc(F)cc3Cl)N=C(c3nccs3)N2)COC(=O)N1 [Example 98], the EC50 is reported as > 0.4 µM.
With CC(C)(C)OC(=O)NC[C@H]1CCC(=O)N1CC1=C(c2ccn(C(F)F)n2)[C@H](c2ccc(F)cc2Cl)N=C(c2nccs2)N1 [Example 130] the EC50 was > 0.4 µM.
